Assay results published in patent publication US6770597B2, “Benzohydrazide derivatives as herbicides and desiccant compositions containing them” (Ishihara Sangyo Kaisha, Ltd., priority 2002, dated 2004).

Columns and labels:
Type in all cases: in vivo
[1] = test system: large crabgrass (Digitaria sanguinalis, DIGSA); experiment: Greenhouse herbicide screen, post-emerge application, phytotoxicity rating; conditions: POST emergent, 14 days after application, scale 0-100
How it was run: (§1)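 Acetone-dissolved compounds are sprayed over pots at 15 to 1000 g ai/ha with a flat fan nozzle 40–45 cm above the target. Pre-emerge pots are top-watered immediately to incorporate; post-emerge pots are bottom-watered. Plants are rated 0–100 after 14 days.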

[2] = test system: redroot pigweed (Amaranthus retrofiexus, AMARE); experiment: as above; conditions: POST emergent, 14 days after application
How it was run: as §1

[3] = test system: cocklebur (Xanthium strumarium, XANST); experiment: as above; conditions: POST emergent, 14 days after application, scale 0-100
How it was run: as §1

[4] = test system: sicklepod (Cassia obtusifolia, CASOB); experiment: as above; conditions: POST emergent, 14 days after application, scale 0-100
How it was run: as §1

[5] = test system: green foxtail (Setaria viridis, SETVI); experiment: as above; conditions: POST emergent, 14 days after application, scale 0-100
How it was run: as §1

[6] = test system: lambsquarters (Chenopodium album, CHEAL); experiment: as above; conditions: POST emergent, 14 days after application, scale 0-100
How it was run: as §1

[7] = test system: velvetleaf (Abutilon theophrasti, ABUTH); experiment: as above; conditions: POST emergent, 14 days after application, scale 0-100
How it was run: as §1

[8] = test system: common ragweed (Ambrosia artemisiifolia L., AMBEL); experiment: as above; conditions: POST emergent, 14 days after application, scale 0-100
How it was run: as §1

[9] = test system: barnyardgrass (Echinochloa crus-galli, ECHCG); experiment: as above; conditions: POST emergent, 14 days after application, scale 0-100
How it was run: as §1

[10] = test system: ivyleaf morningglory (Ipomoea hederacea, IPOHE); experiment: as above; conditions: POST emergent, 14 days after application, scale 0-100
How it was run: as §1

[11] = test system: johnsongrass (Sorghum halepense, SORHA); experiment: as above; conditions: POST emergent, 14 days after application, scale 0-100
How it was run: as §1

[12] = test system: soybean (Glycine max L., var. Pella 86, SOY); experiment: Greenhouse herbicide screen, post-emerge application, crop damage rating; conditions: POST emergent, 14 days after application, scale 0-100
How it was run: as §1

[13] = test system: upland rice (Oryza sp., var.Cocodrie, RICE); experiment: as above; conditions: POST emergent, 14 days after application, scale 0-100
How it was run: as §1

[14] = test system: wheat (Triticum aestivum L.); experiment: as above; conditions: POST emergent, 14 days after application, scale 0-100
How it was run: as §1

[15] = test system: field corn (Zea mays L., var. Dekalb 535, CORN); experiment: as above; conditions: POST emergent, 14 days after application, scale 0-100
How it was run: as §1

[16] = test system: soybean (Glycine max L., var. Pella 86, SOY); experiment: Greenhouse herbicide screen, pre-emerge application, crop damage rating; conditions: PRE emergent, 14 days after application, rating scale 0-100
How it was run: as §1

[17] = test system: upland rice (Oryza sp., var.Cocodrie, RICE); experiment: as above; conditions: PRE emergent, 14 days after application, rating scale 0-100
How it was run: as §1

[18] = test system: wheat (Triticum aestivum L.); experiment: as above; conditions: PRE emergent, 14 days after application, rating scale 0-100
How it was run: as §1

[19] = test system: field corn (Zea mays L., var. Dekalb 535, CORN); experiment: as above; conditions: PRE emergent, 14 days after application, rating scale 0-100
How it was run: as §1

[20] = test system: large crabgrass (Digitaria sanguinalis, DIGSA); experiment: Greenhouse herbicide screen, pre-emerge application, phytotoxicity rating; conditions: PRE emergent, 14 days after application, rating scale 0-100
How it was run: as §1

[21] = test system: redroot pigweed (Amaranthus retrofiexus, AMARE); experiment: as above; conditions: PRE emergent, 14 days after application, rating scale 0-100
How it was run: as §1

[22] = test system: cocklebur (Xanthium strumarium, XANST); experiment: as above; conditions: PRE emergent, 14 days after application, rating scale 0-100
How it was run: as §1

[23] = test system: sicklepod (Cassia obtusifolia, CASOB); experiment: as above; conditions: PRE emergent, 14 days after application, rating scale 0-100
How it was run: as §1

[24] = test system: green foxtail (Setaria viridis, SETVI); experiment: as above; conditions: PRE emergent, 14 days after application, rating scale 0-100
How it was run: as §1

[25] = test system: lambsquarters (Chenopodium album, CHEAL); experiment: as above; conditions: PRE emergent, 14 days after application, rating scale 0-100
How it was run: as §1

[26] = test system: velvetleaf (Abutilon theophrasti, ABUTH); experiment: as above; conditions: PRE emergent, 14 days after application, rating scale 0-100
How it was run: as §1

[27] = test system: common ragweed (Ambrosia artemisiifolia L., AMBEL); experiment: as above; conditions: PRE emergent, 14 days after application, rating scale 0-100
How it was run: as §1

[28] = test system: barnyardgrass (Echinochloa crus-galli, ECHCG); experiment: as above; conditions: PRE emergent, 14 days after application, rating scale 0-100
How it was run: as §1

[29] = test system: ivyleaf morningglory (Ipomoea hederacea, IPOHE); experiment: as above; conditions: PRE emergent, 14 days after application, rating scale 0-100
How it was run: as §1

[30] = test system: johnsongrass (Sorghum halepense, SORHA); experiment: as above; conditions: PRE emergent, 14 days after application, rating scale 0-100
How it was run: as §1

## Cn1c(C(F)(F)F)cc(=O)n(-c2cc(C(=O)NNC(=O)OC(C)(C)C)c(Cl)cc2F)c1=O [Compound 1-24, 2-chloro-5-(3,6-dihydro-3-methyl-2,6-dioxo-4-(trifluoromethyl)-1(2H)-pyrimidinyl)-4-fluoro-benzoic Acid, 2-(1,1-dimethylethyloxy)carbonyl Hydrazide]
[1]; 63 g ai/ha
  phytotoxicity rating DIGSA: 20
[1]; 250 g ai/ha
  phytotoxicity rating DIGSA: 35
[2]; 63 g ai/ha, scale 0-100 (0 no damage, 100 complete death)
  phytotoxicity rating AMARE: 100
[2]; 250 g ai/ha, scale 0-100
  phytotoxicity rating AMARE: 100
[3]; 63 g ai/ha
  phytotoxicity rating XANST: 100
[3]; 250 g ai/ha
  phytotoxicity rating XANST: 100
[4]; 63 g ai/ha
  phytotoxicity rating CASOB: 75
[4]; 250 g ai/ha
  phytotoxicity rating CASOB: 95
[5]; 63 g ai/ha
  phytotoxicity rating SETVI: 35
[5]; 250 g ai/ha
  phytotoxicity rating SETVI: 60
[6]; 63 g ai/ha
  phytotoxicity rating CHEAL: 100
[6]; 250 g ai/ha
  phytotoxicity rating CHEAL: 100
[7]; 63 g ai/ha
  phytotoxicity rating ABUTH: 100
[7]; 250 g ai/ha
  phytotoxicity rating ABUTH: 100
[8]; 63 g ai/ha
  phytotoxicity rating AMBEL: 100
[8]; 250 g ai/ha
  phytotoxicity rating AMBEL: 100
[9]; 63 g ai/ha
  phytotoxicity rating ECHCO: 35
[9]; 250 g ai/ha
  phytotoxicity rating ECHCO: 50
[10]; 63 g ai/ha
  phytotoxicity rating IPOHE: 100
[10]; 250 g ai/ha
  phytotoxicity rating IPOHE: 100
[11]; 63 g ai/ha
  phytotoxicity rating SORHA: 35
[11]; 250 g ai/ha
  phytotoxicity rating SORHA: 55
[12]; 63 g ai/ha
  crop damage rating SOY: 8
[12]; 250 g ai/ha
  crop damage rating SOY: 15
[13]; 63 g ai/ha
  crop damage rating RICE: 60
[13]; 250 g ai/ha
  crop damage rating RICE: 65
[14]; 63 g ai/ha
  crop damage rating WHEAT: 15
[14]; 250 g ai/ha
  crop damage rating WHEAT: 60
[15]; 63 g ai/ha
  crop damage rating CORN: 90
[15]; 250 g ai/ha
  crop damage rating CORN: 95
[16]; 63 g ai/ha
  crop damage rating SOY: 50
[16]; 250 g ai/ha
  crop damage rating SOY: 100
[17]; 63 g ai/ha
  crop damage rating RICE: 5
[17]; 250 g ai/ha
  crop damage rating RICE: 30
[18]; 63 g ai/ha
  crop damage rating WHEAT: 20
[18]; 250 g ai/ha
  crop damage rating WHEAT: 60
[19]; 63 g ai/ha
  crop damage rating CORN: 0
[19]; 250 g ai/ha
  crop damage rating CORN: 100
[20]; 63 g ai/ha
  phytotoxicity rating DIGSA: 0
[20]; 250 g ai/ha
  phytotoxicity rating DIGSA: 40
[21]; 63 g ai/ha
  phytotoxicity rating AMARE: 80
[21]; 250 g ai/ha
  phytotoxicity rating AMARE: 99
[22]; 63 g ai/ha
  phytotoxicity rating XANST: 50
[22]; 250 g ai/ha
  phytotoxicity rating XANST: 90
[23]; 63 g ai/ha
  phytotoxicity rating CASOB: 50
[23]; 250 g ai/ha
  phytotoxicity rating CASOB: 95
[24]; 63 g ai/ha
  phytotoxicity rating SETVI: 10
[24]; 250 g ai/ha
  phytotoxicity rating SETVI: 45
[25]; 63 g ai/ha
  phytotoxicity rating CHEAL: 100
[25]; 250 g ai/ha
  phytotoxicity rating CHEAL: 100
[26]; 63 g ai/ha
  phytotoxicity rating ABUTH: 98
[26]; 250 g ai/ha
  phytotoxicity rating ABUTH: 99
[27]; 63 g ai/ha
  phytotoxicity rating AMBEL: 50
[27]; 250 g ai/ha
  phytotoxicity rating AMBEL: 75
[28]; 63 g ai/ha
  phytotoxicity rating ECHCG: 0
[28]; 250 g ai/ha
  phytotoxicity rating ECHCG: 50
[29]; 63 g ai/ha
  phytotoxicity rating IPOHE: 100
[29]; 250 g ai/ha
  phytotoxicity rating IPOHE: 100
[30]; 63 g ai/ha
  phytotoxicity rating SORHA: 0
[30]; 250 g ai/ha
  phytotoxicity rating SORHA: 40
